Experimental data published in ChEMBL document CHEMBL5131453, “Discovery and structure-based design of a new series of potent and selective PPARδ agonists utilizing a virtual screening method” (Bioorg Med Chem Lett, 2022).
Values after ≈ are worked out from the molar mass of the structure shown.

What was measured:
[1] = molecular target: T1, Peroxisome proliferator-activated receptor alpha (Homo sapiens) (UniProt Q07869); experiment: Transactivation of Gal4-fused human PPARalpha expressed in CHO cells co expressing pG5-Luc reporter at 1 uM; assay type: cell-based; details: filed as agonist
T1 sequence (whole entry): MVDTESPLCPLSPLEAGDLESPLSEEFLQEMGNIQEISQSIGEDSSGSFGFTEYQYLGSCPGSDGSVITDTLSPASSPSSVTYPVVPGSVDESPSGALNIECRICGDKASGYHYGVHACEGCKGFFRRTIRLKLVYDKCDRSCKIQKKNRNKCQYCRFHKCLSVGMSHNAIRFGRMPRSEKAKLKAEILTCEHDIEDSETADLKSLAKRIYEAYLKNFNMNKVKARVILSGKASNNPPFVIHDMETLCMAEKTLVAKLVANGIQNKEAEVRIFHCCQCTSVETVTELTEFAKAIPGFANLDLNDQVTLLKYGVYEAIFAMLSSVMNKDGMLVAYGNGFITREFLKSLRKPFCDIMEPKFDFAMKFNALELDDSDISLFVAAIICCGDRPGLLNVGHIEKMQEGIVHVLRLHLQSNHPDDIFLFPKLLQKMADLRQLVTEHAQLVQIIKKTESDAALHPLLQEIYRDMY

[2] = molecular target: T2, Peroxisome proliferator-activated receptor delta (Mus musculus) (UniProt P35396); experiment: Transactivation of Gal4-fused mouse PPARdelta expressed in CHO cells co expressing pG5-Luc reporter at 1 uM; assay type: cell-based; details: filed as agonist
T2 sequence (whole entry): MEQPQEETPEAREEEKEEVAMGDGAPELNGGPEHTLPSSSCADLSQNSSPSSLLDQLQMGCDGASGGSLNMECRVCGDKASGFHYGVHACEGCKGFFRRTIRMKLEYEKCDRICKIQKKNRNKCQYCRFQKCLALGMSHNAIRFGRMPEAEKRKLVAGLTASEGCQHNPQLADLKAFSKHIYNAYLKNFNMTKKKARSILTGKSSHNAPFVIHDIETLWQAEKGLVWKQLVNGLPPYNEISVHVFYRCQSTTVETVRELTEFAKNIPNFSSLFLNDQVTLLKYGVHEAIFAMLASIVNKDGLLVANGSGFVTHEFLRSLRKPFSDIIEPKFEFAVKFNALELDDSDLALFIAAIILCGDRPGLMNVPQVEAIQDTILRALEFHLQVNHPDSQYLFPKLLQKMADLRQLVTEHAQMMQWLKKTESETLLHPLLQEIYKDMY

[3] = molecular target: T1, Peroxisome proliferator-activated receptor alpha (Homo sapiens); experiment: Transactivation of Gal4-fused human PPARalpha expressed in CHO cells co expressing pG5-Luc reporter at 10 uM; assay type: cell-based; details: filed as agonist
[4] = molecular target: T3, Peroxisome proliferator-activated receptor gamma (Homo sapiens) (UniProt P37231); experiment: Transactivation of Gal4-fused human PPARgamma expressed in CHO cells co expressing pG5-Luc reporter at 10 uM; assay type: cell-based; details: filed as agonist
T3 sequence (whole entry): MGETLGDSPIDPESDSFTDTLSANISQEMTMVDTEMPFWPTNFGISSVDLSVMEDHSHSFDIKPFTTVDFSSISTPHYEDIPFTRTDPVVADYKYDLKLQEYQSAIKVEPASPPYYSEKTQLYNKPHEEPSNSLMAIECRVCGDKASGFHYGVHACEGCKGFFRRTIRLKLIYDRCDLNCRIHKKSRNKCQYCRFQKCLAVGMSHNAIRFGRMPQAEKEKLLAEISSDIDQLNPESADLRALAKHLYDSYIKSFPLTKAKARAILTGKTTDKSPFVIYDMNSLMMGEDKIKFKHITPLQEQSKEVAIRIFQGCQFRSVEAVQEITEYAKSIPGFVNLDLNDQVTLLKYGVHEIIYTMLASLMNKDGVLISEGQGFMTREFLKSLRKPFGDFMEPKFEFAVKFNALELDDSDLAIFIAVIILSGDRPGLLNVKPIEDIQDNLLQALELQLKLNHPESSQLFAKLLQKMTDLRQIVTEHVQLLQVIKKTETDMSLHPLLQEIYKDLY

[5] = molecular target: T4, Peroxisome proliferator-activated receptor delta (Homo sapiens) (UniProt Q03181); experiment: Transactivation of Gal4-fused human PPARdelta expressed in CHO cells co expressing pG5-Luc reporter at 10 uM; assay type: cell-based; details: filed as agonist
T4 sequence (whole entry): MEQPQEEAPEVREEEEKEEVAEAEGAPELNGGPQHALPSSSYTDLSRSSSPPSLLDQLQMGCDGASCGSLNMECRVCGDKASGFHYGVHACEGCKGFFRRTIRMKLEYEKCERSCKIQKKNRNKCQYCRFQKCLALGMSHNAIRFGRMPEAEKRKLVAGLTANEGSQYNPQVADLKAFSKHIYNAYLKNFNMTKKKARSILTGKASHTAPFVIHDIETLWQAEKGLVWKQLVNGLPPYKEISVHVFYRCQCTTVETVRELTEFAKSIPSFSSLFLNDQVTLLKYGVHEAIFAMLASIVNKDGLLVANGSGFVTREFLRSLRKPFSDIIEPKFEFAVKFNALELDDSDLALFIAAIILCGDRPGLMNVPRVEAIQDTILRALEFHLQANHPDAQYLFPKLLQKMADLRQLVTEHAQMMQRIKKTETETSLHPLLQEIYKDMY

CYP1A2 = molecular target: T5, CYP1A2 (Homo sapiens, UniProt P05177); experiment: Inhibition of CYP1A2 (unknown origin) assessed as residual activity at 20 uM by enzyme assay relative to control; assay type: ADME; details: read-out: Activity
T5 sequence (P05177 whole entry): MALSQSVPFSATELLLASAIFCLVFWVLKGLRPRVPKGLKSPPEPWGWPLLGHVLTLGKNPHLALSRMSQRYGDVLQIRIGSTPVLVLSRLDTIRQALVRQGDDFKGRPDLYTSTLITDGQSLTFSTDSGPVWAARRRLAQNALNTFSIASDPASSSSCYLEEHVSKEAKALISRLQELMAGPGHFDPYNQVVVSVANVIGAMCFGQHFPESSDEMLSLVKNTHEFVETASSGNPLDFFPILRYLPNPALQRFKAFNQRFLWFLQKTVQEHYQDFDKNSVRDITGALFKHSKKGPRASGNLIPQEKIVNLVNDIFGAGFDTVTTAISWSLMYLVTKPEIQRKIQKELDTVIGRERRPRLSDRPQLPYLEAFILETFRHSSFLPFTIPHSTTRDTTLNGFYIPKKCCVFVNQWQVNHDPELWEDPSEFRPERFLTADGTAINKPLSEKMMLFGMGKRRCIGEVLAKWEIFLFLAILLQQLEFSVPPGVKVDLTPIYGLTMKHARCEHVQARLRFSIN

[6] = molecular target: T6, Peroxisome proliferator-activated receptor alpha (Homo sapiens, UniProt Q07869); experiment: Transactivation of Gal4-fused human PPARalpha expressed in CHO cells co expressing pG5-Luc reporter; assay type: cell-based
T6 sequence (Q07869 whole entry): T1 sequence (whole entry)

[7] = molecular target: T7, Peroxisome proliferator-activated receptor gamma (Homo sapiens, UniProt P37231); assay type: cell-based, CHO
T7 sequence (P37231 whole entry): T3 sequence (whole entry)

[8] = molecular target: T8, Peroxisome proliferator-activated receptor delta (Homo sapiens, UniProt Q03181); experiment: Transactivation of Gal4-fused human PPARdelta expressed in CHO cells co expressing pG5-Luc reporter; assay type: cell-based
T8 sequence (Q03181 whole entry): T4 sequence (whole entry)

[9] = molecular target: T9, Peroxisome proliferator-activated receptor delta (Mus musculus, UniProt P35396); experiment: Transactivation of Gal4-fused mouse PPARdelta expressed in CHO cells co expressing pG5-Luc reporter; assay type: cell-based
T9 sequence (P35396 whole entry): T2 sequence (whole entry)

[10] = Metabolic stability in rat liver microsomes assessed as parent compound remaining after 0.5 hrs relative to control; assay type: ADME, Microsome; details: read-out: Stability
[11] = Metabolic stability in human liver microsomes assessed as parent compound remaining after 0.5 hrs relative to control; assay type: ADME, Microsome; details: read-out: Stability
CYP2C9 = CYP2C9 (Homo sapiens, UniProt P11712); experiment: Inhibition of CYP2C9 (unknown origin) assessed as residual activity at 20 uM by enzyme assay relative to control; assay type: ADME; details: read-out: Activity
Chain of CYP2C9 (P11712 whole entry): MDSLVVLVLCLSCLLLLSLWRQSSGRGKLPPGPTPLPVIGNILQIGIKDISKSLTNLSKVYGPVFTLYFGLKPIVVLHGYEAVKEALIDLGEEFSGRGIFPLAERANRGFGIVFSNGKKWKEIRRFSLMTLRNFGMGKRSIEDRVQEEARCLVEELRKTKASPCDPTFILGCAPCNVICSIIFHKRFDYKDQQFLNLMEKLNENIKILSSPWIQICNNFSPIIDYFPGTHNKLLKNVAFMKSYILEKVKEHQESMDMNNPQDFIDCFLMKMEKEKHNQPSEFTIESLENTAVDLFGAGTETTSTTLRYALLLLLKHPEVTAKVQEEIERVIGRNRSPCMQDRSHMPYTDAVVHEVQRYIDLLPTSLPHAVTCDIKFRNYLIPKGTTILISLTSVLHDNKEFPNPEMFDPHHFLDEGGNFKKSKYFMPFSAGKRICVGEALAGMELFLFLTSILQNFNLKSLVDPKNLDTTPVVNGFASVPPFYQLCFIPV

CYP2D6 = CYP2D6 (Homo sapiens, UniProt P10635); experiment: Inhibition of CYP2D6 (unknown origin) assessed as residual activity at 20 uM by enzyme assay relative to control; assay type: ADME; details: read-out: Activity
Chain of CYP2D6 (P10635 whole entry): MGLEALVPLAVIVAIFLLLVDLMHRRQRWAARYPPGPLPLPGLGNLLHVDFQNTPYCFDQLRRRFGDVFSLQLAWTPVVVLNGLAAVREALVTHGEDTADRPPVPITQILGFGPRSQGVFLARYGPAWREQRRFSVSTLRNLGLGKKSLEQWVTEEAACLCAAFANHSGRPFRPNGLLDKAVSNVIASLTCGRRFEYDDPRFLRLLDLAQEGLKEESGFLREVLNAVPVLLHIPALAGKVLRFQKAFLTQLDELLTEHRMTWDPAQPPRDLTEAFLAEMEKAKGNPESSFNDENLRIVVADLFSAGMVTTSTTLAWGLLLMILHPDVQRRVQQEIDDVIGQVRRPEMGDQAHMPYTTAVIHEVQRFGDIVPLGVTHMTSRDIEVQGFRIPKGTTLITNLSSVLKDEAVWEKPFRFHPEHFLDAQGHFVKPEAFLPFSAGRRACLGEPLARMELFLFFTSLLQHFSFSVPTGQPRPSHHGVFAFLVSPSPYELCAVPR

CYP3A4 = CYP3A4 (Homo sapiens, UniProt P08684); experiment: Inhibition of CYP3A4 (unknown origin) assessed as residual activity at 20 uM by enzyme assay relative to control; assay type: ADME; details: read-out: Activity
Chain of CYP3A4 (P08684 whole entry): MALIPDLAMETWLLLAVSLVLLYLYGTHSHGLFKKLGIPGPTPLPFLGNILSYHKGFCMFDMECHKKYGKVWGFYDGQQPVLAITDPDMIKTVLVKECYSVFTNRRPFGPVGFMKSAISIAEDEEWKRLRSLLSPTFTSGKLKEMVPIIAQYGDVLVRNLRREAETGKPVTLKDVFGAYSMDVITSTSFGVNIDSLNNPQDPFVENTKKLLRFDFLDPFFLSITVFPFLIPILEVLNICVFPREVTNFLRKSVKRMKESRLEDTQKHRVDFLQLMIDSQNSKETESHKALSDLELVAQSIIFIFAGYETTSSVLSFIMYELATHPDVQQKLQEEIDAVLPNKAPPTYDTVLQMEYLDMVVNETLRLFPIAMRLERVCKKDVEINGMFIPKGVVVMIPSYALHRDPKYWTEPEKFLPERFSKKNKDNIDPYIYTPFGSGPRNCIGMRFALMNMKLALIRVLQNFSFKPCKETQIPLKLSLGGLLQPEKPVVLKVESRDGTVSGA

[12] = Kinetic solubility of compound at pH 6.8 by HPLC analysis; assay type: physicochemical; details: buffer, read-out: Kinetic_solubility
[13] = Total clearance in rat dosed as mixture; assay type: ADME, organism-based; details: in vivo
[14] = Half life in rat dosed as mixture; assay type: ADME, organism-based; details: in vivo
Mus musculus [15] = experiment: Anti-obesity activity in […] mouse assessed as HDL cholesterol level at 30 mg/kg, po for 8 days (reference value: 103.5 +/- 3.2 %); assay type: functional; details: time 8 day
Mus musculus [16] = experiment: Anti-obesity activity in […] mouse assessed as TG level at 30 mg/kg, po for 8 days (reference value: 162.8 +/- 21.4 mg/dL); assay type: functional; details: time 8 day
Mus musculus [17] = experiment: Anti-diabetic activity in […] mouse assessed as glucose level at 30 mg/kg, po for 8 days (reference value: 737 +/- 52 mg/dL); assay type: functional; details: time 8 day
Homo sapiens = species: Homo sapiens; experiment: Selectivity index, ratio of EC50 for human PPARalpha to EC50 for human PPARdelta
[18] = molecular target: PPAR delta/gamma (Homo sapiens) (UniProt P37231+Q03181); experiment: Selectivity index, ratio of EC50 for human PPAgamma to EC50 for human PPARdelta; assay type: protein assay

Row | SMILES | fold change (FC) [1] | fold change (FC) [2] | EC50 [6] [nM] | EC50 [7] [nM] | EC50 [8] [nM] | EC50 [9] [nM] | other results
1 | O=C(O)Cc1cccc(OCC2CCN(c3nc4ccc(Cl)cc4s3)CC2)c1 | 2.5 | 7 | – | – | – | – | –
2 | O=C(O)c1cccc(OCCC2CCN(c3nc4ccc(Cl)cc4s3)CC2)c1 | 7.5 | 1.4 | – | – | – | – | –
3 | O=C(O)CCC(=O)OCCN1CCN(c2nc3ccc(Cl)cc3s2)CC1 | 1.5 | – | – | – | – | – | fold change (FC) [3]: 3; fold change (FC) [4]: 1.5; fold change (FC) [5]: 2.8
4 | Cc1ccc(CC(=O)O)cc1OCCC1CCN(c2nc3ccc(Cl)cc3s2)CC1 | – | – | 637 | 542 | 16.4 | 71.2 | activity at 20 µM (CYP1A2): 92%; remaining at 0.5 h [10]: 101%; remaining at 0.5 h [11]: 96%; activity at 20 µM (CYP2C9): 58%; activity at 20 µM (CYP2D6): 94%; activity at 20 µM (CYP3A4): > 99%; solubility kinetic [12]: 21.8 µM (≈ 9.7 µg/mL); clearance [13]: 14.3 mL/min/kg; half-life [14]: 1.8 h; Activity (Mus musculus [15]): 118%; Activity (Mus musculus [16]): 63.9 mg/dL; Activity (Mus musculus [17]): 415 mg/dL; Ratio EC50 (Homo sapiens): 38; Ratio EC50 [18]: 33
5 | CCc1ccc(CC(=O)O)cc1OCCC1CCN(c2nc3ccc(Cl)cc3s2)CC1 | – | – | 3600 | 680 | 120 | 330 | –
6 | O=C(O)CCC(=O)OCCC1CCN(c2nc3ccc(Cl)cc3s2)CC1 | 2.4 | 2 | – | – | – | – | fold change (FC) [3]: 8.6; fold change (FC) [4]: 1.5; fold change (FC) [5]: 11
7 | CN(CCOc1ccc(CC2SC(=O)NC2=O)cc1)c1ccccn1 (stereo not drawn) | 1.2 | – | – | – | – | – | –
8 | Cc1ccc(OCCC2CCN(c3nc4ccc(Cl)cc4s3)CC2)cc1CC(=O)O | – | – | – | 980 | 110 | 830 | –
9 | O=C(O)CCc1cccc(OCCC2CCN(c3nc4ccc(Cl)cc4s3)CC2)c1 | 1.5 | 2.2 | – | – | – | – | –
10 | O=C(O)Cc1cccc(OCCC2CCN(c3nc4ccc(Cl)cc4s3)CC2)c1 | – | – | 2220 | – | 263 | 1060 | –
11 | Cc1cc(CC(=O)O)cc(OCCC2CCN(c3nc4ccc(Cl)cc4s3)CC2)c1 | – | – | 955 | 1070 | 92.9 | 151 | –
12 | Cc1cc(SCc2sc(-c3ccc(C(F)(F)F)cc3)nc2C)ccc1OCC(=O)O [GW501516] | 3.1 | 30.4 | – | – | – | – | Activity (Mus musculus [15]): 132.9%; Activity (Mus musculus [16]): 82.4 mg/dL; Activity (Mus musculus [17]): 493 mg/dL
